Assay [1] concerns enzymatic coupling reaction. Kind of assay: Influence on enzymatic coupling itself (25 μM ADP instead of CMP). The assay is classed as biochemical. The following applies: 25 μM ADP instead of 50 μM CMP. On the procedure: In addition, the same operations were performed using 25 μM ADP instead of 50 μM CMP, and an influence of Ap5A on enzymatic coupling itself was studied. In addition, some of the reaction solution after the kinase reaction of CMPK1 was used, an amount of produced CDP was measured by the HPLC analysis method described in Example 14, and an inhibitory activity was determined by an HPLC method.

The target of another assay is T1, CMPK1 (Homo sapiens, UniProt P30085).
T1 construct: purchased Prospec pKa-002-b
T1 sequence (P30085 1-196): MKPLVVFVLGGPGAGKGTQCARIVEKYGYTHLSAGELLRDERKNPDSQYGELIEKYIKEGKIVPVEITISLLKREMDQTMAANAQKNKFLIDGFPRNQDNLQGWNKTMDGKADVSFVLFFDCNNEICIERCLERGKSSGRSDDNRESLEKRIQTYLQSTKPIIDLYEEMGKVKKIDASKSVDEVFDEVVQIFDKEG
Kind of assay: Inhibition of CMPK1 measured by the enzymatic coupling fluorescence method. The assay is classed as biochemical. The conditions noted are these: enzymatic coupling with 20 mM N-ethylmaleimide; matched HPLC method. On the procedure: Enzyme inhibitory activities of Ap5A (P^1,P^5-Di(adenosine-5′)pentaphosphate) in which inhibitory activities of dictyostelium (Dictyostelium discoideum) on CMP kinase have been reported (J. Biol. Chem, Vol. 265, No. 11, pp. 6339-6345, 1990) on CMPK1 were measured using a method of the present invention. A 0 to 3 mM Ap5A (1 μl) (catalog number D4022 commercially available from Sigma-Aldrich) solution and 50 μM CMP (2 μl) were added to a 384-well microplate, and 200 μM ATP (2 μi), 3 μg/ml CMPK1, and 4 mM DTT were added thereto (a buffer solution composition included 100 mM Tris-HCl (pH 9), 13.5 mM MgCl2, 150 mM KCl, and 0.1% TritonX-100). The result was covered with a plate seal and incubated for 1 hour at 37° C. Then, the result was cooled at room temperature, and the mixed solution for enzymatic coupling (5 μl) containing 20 mM N-ethylmaleimide was added and incubated for 60 minutes at 25° C. in darkness. Then, fluorescence was measured using a plate reader. A group containing no Ap5A was set as a control (an inhibition rate of 0%), a group containing no CMPK1 was set as a control (an inhibition rate of 100%), and inhibition rates of Ap5A of respective concentrations on CMPK1 were calculated.

In assay [2] the target is T2, human FUT7 (Homo sapiens, UniProt Q11130).
T2 sequence (Q11130 1-342): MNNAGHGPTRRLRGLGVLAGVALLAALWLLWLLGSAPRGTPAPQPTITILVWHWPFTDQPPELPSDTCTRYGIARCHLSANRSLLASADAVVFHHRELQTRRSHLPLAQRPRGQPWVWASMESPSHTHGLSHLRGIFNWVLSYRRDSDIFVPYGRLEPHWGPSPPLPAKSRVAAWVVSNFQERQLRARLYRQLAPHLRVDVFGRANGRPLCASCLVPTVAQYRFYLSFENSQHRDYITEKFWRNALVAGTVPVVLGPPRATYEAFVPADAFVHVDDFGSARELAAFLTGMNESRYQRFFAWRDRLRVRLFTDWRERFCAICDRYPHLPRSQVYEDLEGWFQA
Briefly: Inhibition of FUT7 measured by the enzymatic coupling fluorescence method of the invention. The assay is classed as biochemical. The conditions noted are these: method of the present invention, FUT7 1 μg/ml; read-out: IC50 value, inhibitory activity on FUT7. On the procedure: 100 μM GDP-fucose (2.5 μl), 6 mg/ml fetuin, and 0 to 4 μg/ml FUT7 (2.5 μl) were added to a 384-well microplate (a buffer solution included 50 mM Tris-HCl (pH 7.5), 5 mM MgCl2, 10 mM MnCl2, and 0.1% Triton X-100), covered with a plate seal (catalog number 1-6774-01 commercially available from AS ONE corporation) and incubated for 1 hour at 37° C. After being cooled to room temperature, the mixed solution A for the first process (5 μl) was added to the result and incubated for 1 hour at 25° C. The mixed solution B for the second process (10 μl) was added to the result, and incubated for 30 minutes at 25° C. Fluorescence thereof was measured similarly to Example 1. A fluorescence value according to an enzyme concentration was confirmed.
When enzyme activities of FUT7 were measured using the method described in Example 4, an inhibitory effect of gallic acid on FUT7 was studied according to the same operations as in Example 4 except that a reaction of FUT7 (a concentration of 1 μg/ml in a transglucosylation solution) was caused in the presence of gallic acid. A group containing no gallic acid was set as a control (an inhibition rate of 0%), a group containing no FUT7 was set as a control (an inhibition rate of 100%), and inhibition rates of gallic acid of respective concentrations of FUT7 were calculated.

The target of assay [3] is T2, human FUT7. Briefly: Inhibition of FUT7 measured by HPLC quantification of produced GDP. The assay is classed as biochemical. The conditions noted are these: FUT7 1 μg/ml, read-out: IC50 value, inhibitory activity on FUT7. On the procedure: (§1) In addition, the same operations were performed using 50 μM GDP instead of 100 μM GDP-fucose, and an influence of enzymatic coupling itself on gallic acid was studied. In addition, an amount of GDP produced was quantified by HPLC analysis using some of the reaction solution after the FUT7 enzymatic reaction, and an inhibitory activity was determined by an HPLC method.
HPLC conditions were as follows: column: YMC-Triart C18 (commercially available from Ymc Corporation, particle size: 5 μm, and diameter: 4.6 mm×length: 150 mm), eluate: 50 mM KH2PO4—K2HPO4 (10:1), flow rate: 1 ml/min, and detection: UV 260 nm.

Assay [4] concerns the target T2, human FUT7. The following applies: reported in Arch. Biochem. Biophys, Vol. 425, No. 1, pp. 51-57, 2004; cited from earlier work.
Assay [5] relates to enzymatic coupling reaction. Kind of assay: Influence on enzymatic coupling itself (50 μM GDP instead of GDP-fucose). The assay is classed as biochemical. The conditions noted are these: 50 μM GDP instead of 100 μM GDP-fucose. On the procedure:
as §1

Where two headings read alike, the source gives them in different places.

`Nc1ncnc2c1ncn2[C@@H]1O[C@H](COP(=O)(O)OP(=O)(O)OP(=O)(O)OP(=O)(O)OP(=O)(O)OC[C@H]2O[C@@H](n3cnc4c(N)ncnc43)[C@H](O)[C@@H]2O)[C@@H](O)[C@H]1O` [Ap5A, P^1,P^5-Di(adenosine-5′)pentaphosphate]: the “inhibition of the enzymatic coupling reaction itself” value in assay [1] is given as “did not inhibit the enzymatic coupling reaction itself at all”. Moreover, the “inhibitory activity on CMPK1” value on CMPK1 is “inhibition of CMPK1”.
For the compound `O=C(O)c1cc(O)c(O)c(O)c1` [gallic acid], the figures for the half-inhibitory concentration (IC50) at human FUT7 [2], on human FUT7 [3] and at human FUT7 [4] were approximately 10 µM, approximately 10 µM and 5.4 µM, respectively. The “inhibition of the enzymatic coupling reaction itself” value in assay [5] is recorded as “did not inhibit the enzymatic coupling reaction itself at all”.

These data come from US20160289728A1, “METHOD FOR DETECTING FLUORESCENCE OR ABSORBANCE, METHOD FOR SUPPRESSING BACKGROUND, METHOD FOR MEASURING ADP, METHOD FOR MEASURING ACTIVITY OF ADP-SYNTHESIZING ENZYME, AND METHOD FOR MEASURING ACTIVITY OF GLUCOSYLTRANSFERASE” (The University of Tokyo, priority 2013, published 2016).
